1 compound from patent US8710068B2, “Method of treating cancer using a survivin inhibitor” (The Trustees Of The University Of Pennsylvania, priority 2009, dated 2014) can be followed below.

One data set relates to HCT116(p53−/−) cells. As to the kind of experiment: MTT viability assay, HCT116(p53−/−). It counts as cell-based. As to conditions: 48 hours. The protocol: FIG. 4 illustrates the effects of S12 on proliferation of p53-positive and p53-negative cancer cells. (A) HCT116(p53+/+) or HCT116(p53−/−) cells were treated with DMSO or S12 at the indicated concentrations for 48 hours. The percentage of viable cells was evaluated by MTT assay.
Thus, inhibition of cell proliferation by S12 is independent of p53 status.
A general note: Tetrazolium dyes change colour on reduction, which living cells bring about.

The next data set deals with PARP. The data set can be described thus: Western blot for PARP cleavage (caspase activation) and Survivin levels, HeLa. The data set is classed as cell-based, human. Particulars: 12 hours. The protocol:
(§1) FIG. 12 illustrates S12 induction of caspase activation in HeLa cells. (A) HeLa cells were incubated with DMSO (control), S12, Taxol, nocodazole (Noco), or etoposide (Etop) for 12 hours. The cell lysates were analyzed by Western blot using the anti-PARP antibody (top panel), the anti-α-tubulin antibody (middle panel), or the anti-Survivin antibody (bottom panel). (B) S12 causes cell death in a cell cycle dependent manner. HeLa cells, either unsynchronized or synchronized by thymidine treatment were incubated either with S12 or DMSO. Cell death was quantitated by trypan blue exclusion assay.
(§2) We examined whether S12 treatment leads to apoptosis. HeLa cells were incubated with S12 at the concentration of 50 μg/ml or with DMSO alone for 12 hours. To compare the effect with that of other therapeutic agents, HeLa cells were also treated with Taxol, nocodazole, or etoposide, respectively. The cell lysates were collected and subjected to Western blot analysis using an anti-PARP antibody. […] We also re-probed the blot with an anti-Survivin antibody. […] These observations, combined with the earlier findings, indicate that the Survivin-targeting molecule S12 can block mitosis and cause apoptosis.
In general terms: In western blotting, separated proteins are transferred to a membrane and probed.

Assay in data set [1]: as above
As to conditions: 50 μg/ml, 12 hours, anti-Survivin Western blot. It counts as cell-based, human. The method, then: as §1, §2

The subject of data set [2] is HeLa cells. As to the kind of experiment: Trypan blue exclusion cell death, synchronized vs unsynchronized HeLa. The data set is classed as cell-based, human. The method, then:
as §1
We wanted to determine if the Survivin-targeting compounds induce cell death during mitosis but could not affect the phenotype or influence in other stages of the cell cycle. To this end, we blocked HeLa cells in the S phase by thymidine treatment and examined whether the cells were susceptible to cell death induced by S12. […] Thus, the current data support the notion that S12 induced death of cells is a consequence of mitotic arrest rather than general cytotoxicity and indicate a unique cell cycle specific functionality of Survivin in this process.

Another data set deals with AsPC1 tumor xenograft. The data set can be described thus: Immunohistochemistry of tumor xenograft (Ki67, TUNEL). It counts as in vivo, athymic mice. The source says: FIG. 14 illustrates the immunohistochemistry analysis of tumor xenograft following treatment with S12 or PBS.
We performed immunohistochemistry studies to analyze the cellular effects of S12 treatment on the tumors. […] In addition, we examined apoptosis using the TUNEL assay.

For data set [3], the system named is HeLa cells. As to the kind of experiment: Immunofluorescence microscopy of mitosis and spindle formation, HeLa. The data set is classed as cell-based, human. The protocol:
FIG. 8 illustrates the effect of S2 on mitotic spindle formation. HeLa cells were treated with S2 or DMSO for 15 hours. The cells were then fixed and subjected to immunostaining using the anti-β-Tubulin (green) and the anti-Survivin (red). Representative fluorescent microscopy images are shown. Note that short microtubule bundles form in S2-treated cells.
FIG. 9 illustrates the effect of S12 on mitosis. (A) HeLa cells were treated with S12, S2 or DMSO for 15 hours. The cells were then fixed and subjected to immunostaining using antibodies specific for Aurora B (green) and Survivin (red). DNA was stained with DAPI. Chromosome misalignment is indicated with the arrowheads. (B) Percentage of S12-treated cells in mitosis, in metaphase, in anaphase/telophase, or with misaligned chromosomes. (C) Percentage of S2-treated cells in mitosis, in metaphase, in anaphase/telophase, or with misaligned chromosomes. (D) HeLa cells were treated with S12 (10 μg/ml) or DMSO (control) for 15 hours. Cells were examined by PI staining of DNA content by FACS analysis.
FIG. 17 illustrates (A) FACS analysis of DNA content of HeLa cells treated with SBDO3. Note the accumulation of cells at the G2/M stage. Cell death was also observed (sub-G1 population); (B) Immuno-fluorescence microscopy analysis of cell treated with SBDO3. Note that the microtubule bundles of the mitotic spindle are disorganized. The chromosomes are not aligned properly and cells cannot go through metaphase.
FIG. 19 illustrates immunofluorescence studies of Survivin localization. (A) Untreated HeLa cells were subjected to immunostaining using a monoclonal anti-beta-Tubulin antibody (green) or a polyclonal anti-Survivin antibody (red). Images of cells at various stages of mitosis are shown. (B) HeLa cells were treated with S2 for 6 hours. Cells were immunostained with anti-beta-Tubulin antibody (green) or a polyclonal anti-survivin antibody (red). Note that localization of Survivin to the midbody was not affected by S2.
The effect of S2 and its analogs on the progression of cell cycle was examined by immunofluorescence microscopy. HeLa cells were plated on coverglass and treated with the Survivin-targeting compound S2 (10 μg/ml) or with the solvent DMSO alone for 15 hours. Cells were stained with the anti-β-Tubulin antibody (green) and anti-Survivin antibody (red). S2 can block cell division at the early stage of mitosis (FIG. 8). […] The microtubules in this case are very short, with one end attached to the centrosome and the other end to the kinetochore of the chromosomes (FIG. 8).
We extended the immunofluorescence studies to define the cell stage in the cells that were arrested by S2 or its analogs. Cells were also stained with anti-Aurora B antibody or anti-Survivin antibody in order to determine whether the localization of Survivin or Aurora B proteins are changed by these small molecules. Upon S2 or S12 treatment, we observed that cells accumulate in a stage with condensed chromosomes but without proper alignment of chromosomes on the mitotic plate (FIG. 9). The percentage of cells that progress to metaphase or beyond was reduced by S2 or S12 treatment (FIG. 9). […] Moreover, localization of Survivin to the midbody was also not affected.
Effects of the Survivin-targeting compound S12 on cell cycle progression was examined by immunofluorescence microscopy. HeLa cells were plated on coverglass and treated with S12 (40 μM) or with the solvent DMSO alone for 15 hours. […]

A short description of data set [4]: Toxicity observation in xenograft mice. It counts as in vivo. Particulars: 5 to 50 mg/kg, xenograft studies.

In the case of `O=C(CC1(O)C(=O)Nc2ccc(Br)cc21)c1ccc2c(c1)OCO2` (centres unmarked) [S12], the “reduction of cell viability” value in the data set with HCT116(p53−/−) cells is recorded as “equally effective at reducing cell viability”. Moreover, in the data set on PARP (50 μg/ml, Western blot), the “cleavage of PARP (caspase activation)” value is given as “detected”. In the data set with PARP (at the concentrations employed), the “apoptosis induction compared with other agents” value is reported as “more potent in inducing apoptosis than Taxol, nocodazole, or etoposide”. In data set [1], the “overall Survivin levels” value is reported as “did not significantly affect”. The “cell death of S phase-arrested cells” value with HeLa cells [2] (HeLa blocked in S phase by thymidine) is given as “insensitive”. The “cell death of unsynchronized cells” value in the data set with HeLa cells [2] (unsynchronized HeLa) is “underwent apoptosis”. Moreover, in the data set on AsPC1 tumor xenograft (immunohistochemistry of tumor xenograft), the “proliferation of tumor cells (Ki67)” value is reported as “drastically reduced proliferation of tumor cells”. In addition, in the data set with AsPC1 tumor xenograft (tumor xenograft), the “apoptosis in the tumors (TUNEL assay)” value is “increased the levels of apoptosis”. For the same compound, in the data set with HeLa cells [3] (15 hours), the “percentage of cells that progress to metaphase or beyond” value is “reduced”. In the data set with HeLa cells [3] (15 hours, immunofluorescence), the “formation of the mitotic spindle” value was “can cause defects in formation of the mitotic spindle”. Further, in the data set on HeLa cells [3] (immunofluorescence), the “localization of Survivin or Aurora B to the kinetochore” value is recorded as “did not alter”, the “localization of Survivin to the midbody” value was “not affected” and the “mitotic stage at which cells accumulate” value is “arrested by S12 in an early stage of mitosis”. The “toxic effects to the mice” value in data set [4] is reported as “no overtly toxic effects”.
